These compounds were tested against T1, IRAK4 (Homo sapiens, UniProt Q9NWZ3) (assay: ALE THP1 HTRF (Advanced Lipoxidation End Product THP1 Homogeneous Time Resolved Fluorescence)). Details: THP1 cells.
T1 construct: endogenous in cells; host or cells: THP-1 cells
T1 sequence (Q9NWZ3 1-460): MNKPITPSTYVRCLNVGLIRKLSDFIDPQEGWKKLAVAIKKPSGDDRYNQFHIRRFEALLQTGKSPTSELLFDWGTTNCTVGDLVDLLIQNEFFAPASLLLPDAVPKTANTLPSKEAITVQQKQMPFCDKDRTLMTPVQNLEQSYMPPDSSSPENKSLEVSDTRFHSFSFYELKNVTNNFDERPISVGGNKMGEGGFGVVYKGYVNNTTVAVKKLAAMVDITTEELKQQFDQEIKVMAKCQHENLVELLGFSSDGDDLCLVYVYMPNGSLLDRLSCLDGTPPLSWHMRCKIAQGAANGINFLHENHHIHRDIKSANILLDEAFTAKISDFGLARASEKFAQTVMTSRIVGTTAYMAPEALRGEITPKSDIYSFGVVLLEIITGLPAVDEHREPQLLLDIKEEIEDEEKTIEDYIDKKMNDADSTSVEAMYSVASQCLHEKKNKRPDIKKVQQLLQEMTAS
Assay type: cell-based
Summary of the method: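 Cells lysed 45 min at room temperature; lysates normalized to total protein by BCA. Total IRAK4 detected by HTRF sandwich (anti-IRAK4-d2 plus anti-IRAK4-cryptate), incubated overnight in the dark at room temperature, read on a time-resolved fluorescence plate reader.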

Row | SMILES | ALE THP1 HTRF YMIN | EC50
1 | CCCNc1cc(-n2ncc3cc(C#N)cnc32)ncc1C(=O)N[C@H]1CC[C@H](CCN2CCN(c3ccc(C4CCC(=O)NC4=O)cc3)CC2)CC1 (stereo partly drawn) [P-107] | 9.1% | 14 nM
2 | CC(C)(O)CNc1cc(-n2ncc3cc(C#N)cnc32)ncc1C(=O)N[C@H]1CC[C@H](CCN2CCN(c3ccc(C4CCC(=O)NC4=O)cc3)CC2)CC1 (stereo partly drawn) [P-108] | 11.0% | 32 nM
3 | N#Cc1cnn2c(-c3cc(NC4CC4)c(C(=O)N[C@H]4CC[C@H](CCN5CCN(c6ccc(C7CCC(=O)NC7=O)cc6)CC5)CC4)cn3)ccc2c1 (stereo partly drawn) [P-109] | 10.7% | 8 nM
4 | N#Cc1cnc2c(cnn2-c2cc(NCC(F)(F)F)c(C(=O)N[C@H]3CC[C@H](CCN4CCN(c5ccc(C6CCC(=O)NC6=O)cc5)CC4)CC3)cn2)c1 (stereo partly drawn) [P-112] | 8.7% | 23 nM
5 | N#Cc1cnc2c(cnn2-c2cc(NCC3CCCO3)c(C(=O)N[C@H]3CC[C@H](CCN4CCN(c5ccc(C6CCC(=O)NC6=O)cc5)CC4)CC3)cn2)c1 (stereo partly drawn) [P-113] | 18.7% | 74 nM
6 | O=C1CCC(c2ccc(N3CCN(CC[C@H]4CC[C@H](NC(=O)c5cnc(-n6ncc7cc(Cl)cnc76)cc5NC5CC5)CC4)CC3)cc2)C(=O)N1 (stereo partly drawn) [P-114] | 46.1% | > 5000 nM
7 | CC(C)(C#N)Nc1cc(-n2ncc3cc(C#N)cnc32)ncc1C(=O)N[C@H]1CC[C@H](CCN2CCN(c3ccc(C4CCC(=O)NC4=O)cc3)CC2)CC1 (stereo partly drawn) [P-115] | 38.9% | > 5000 nM
8 | C[C@H]1CN(c2ccc(C3CCC(=O)NC3=O)cc2)C[C@H](C)N1CC[C@H]1CC[C@H](NC(=O)c2cnc(-n3ncc4cc(C#N)cnc43)cc2NC2CC2)CC1 (stereo partly drawn) [P-116] | 8.3% | 7 nM
9 | O=C1CCC(c2ccc(N3CCN(CC[C@H]4CC[C@H](NC(=O)c5cnc(-n6ncc7cncnc76)cc5NC5CC5)CC4)CC3)cc2)C(=O)N1 (stereo partly drawn) [P-117] | 13.6% | 33 nM
10 | N#Cc1cnc2c(cnn2-c2cc(NCCC(F)(F)F)c(C(=O)N[C@H]3CC[C@H](CCN4CCN(c5ccc(C6CCC(=O)NC6=O)cc5)CC4)CC3)cn2)c1 (stereo partly drawn) [P-118] | 9.9% | 34 nM
11 | CCC1(Nc2cc(-n3ncc4cc(C#N)cnc43)ncc2C(=O)N[C@H]2CC[C@H](CCN3CCN(c4ccc(C5CCC(=O)NC5=O)cc4)CC3)CC2)CC1 (stereo partly drawn) [P-119] | 8.3% | 25 nM
12 | C[C@@H]1CN(CC[C@H]2CC[C@H](NC(=O)c3cnc(-n4ncc5cc(C#N)cnc54)cc3NC3CC3)CC2)CCN1c1ccc(C2CCC(=O)NC2=O)cc1 (stereo partly drawn) [P-120] | 7.2% | 15 nM
13 | C[C@H]1CN(CC[C@H]2CC[C@H](NC(=O)c3cnc(-n4ncc5cc(C#N)cnc54)cc3NC3CC3)CC2)CCN1c1ccc(C2CCC(=O)NC2=O)cc1 (stereo partly drawn) [P-121] | 11.0% | 13 nM
14 | N#Cc1cnc2c(cnn2-c2cc(NC3(C#N)CC3)c(C(=O)N[C@H]3CC[C@H](CCN4CCN(c5ccc(C6CCC(=O)NC6=O)cc5)CC4)CC3)cn2)c1 (stereo partly drawn) [P-122] | 10.4% | 80 nM
15 | N#Cc1cnn2c(-c3cc(NC4CC4)c(C(=O)N[C@H]4CC[C@H](CCN5CCN(c6ccc(C7CCC(=O)NC7=O)cc6)CC5)CC4)cn3)cnc2c1 (stereo partly drawn) [P-123] | 24.4% | 62 nM
16 | N#Cc1cnc2c(cnn2-c2cc(NC3CC3)c(C(=O)N[C@H]3CC[C@H](CCN4CC5(C4)CN(c4ccc(C6CCC(=O)NC6=O)cc4)C5)CC3)cn2)c1 (stereo partly drawn) [P-124] | 19.2% | 46 nM
17 | CN(C[C@H]1CC[C@H](NC(=O)c2cnc(-n3ncc4cc(C#N)cnc43)cc2NC2CC2)CC1)C1CCN(c2ccc3c(c2)CN(C2CCC(=O)NC2=O)C3=O)CC1 (stereo partly drawn) [P-127] | 24.5% | 8 nM
18 | N#Cc1cnc2c(cnn2-c2cc(NC3CC3)c(C(=O)N[C@H]3CC[C@H](C(=O)NC4CCN(c5ccc6c(c5)CN(C5CCC(=O)NC5=O)C6=O)CC4)CC3)cn2)c1 (stereo partly drawn) [P-129] | 24.2% | 47 nM
